According to US11369618B2, “Compounds, compositions and methods for prevention and/or treatment of cancer” (THE TRUSTEES OF THE UNIVERSITY OF PENNSYLVANIA, priority 2016, dated 2022):

What was measured:
[1] = tested on: PDAC cell lines; assay: proliferation assay of PDAC cell lines treated with G-1; assay type: cell-based; conditions: 500 nM over 5 days
[2] = tested on: NSCLC line LLC1; assay: proliferation assay of LLC1 treated with G-1; assay type: cell-based; conditions: LLC1, 500 nM, 6 days
Protocol: (§1) FIGS. 18A-18G illustrate the finding that GPER signaling reduces NSCLC cell proliferation in vitro and in vivo and has combinatorial effects with αPD-1 immunotherapy. FIG. 18A: Western blot for pCREB of LLC1 cells treated with 500 nM G-1 for 30 minutes. FIG. 18B: Proliferation assay of LLC1 treated with 500 nM G-1 for 6 days. FIG. 18C: Western blot for c-Myc of LLC1 cells treated with 500 nM G-1 for 6 days. FIG. 18D: Western blot for c-Myc of LLC1 cells treated with 500 nM G-1 over a time-course. […] FIG. 18F: Tumor volumes over time of LLC1 tumor bearing mice treated with vehicle or G-1, as well as αPD-1 antibody or isotype antibody control (2A3). FIG. 18G: Survival curve of mice treated with vehicle or G-1, as well as αPD-1 antibody or isotype antibody control (2A3).

[3] = tested on: pCREB and c-Myc in NSCLC line TC-1; assay: Western blot of TC-1 cells treated with G-1; assay type: cell-based; conditions: TC-1, 500 nM, 1 hour
[4] = tested on: LLC1 tumors; assay: LLC1 tumor bearing mice treated with subcutaneous G-1, αPD-1 antibody, or both; assay type: in vivo, mouse
Protocol: as §1
To test whether G-1 had activity in vivo and synergizes with PD-1 immunotherapy, LLC1 tumors were grown in mice that were treated with subcutaneous G-1, αPD-1 antibody, or both, and survival compared to matched mice treated with vehicle and isotype antibody controls.

## CC(=O)c1ccc2c(c1)[C@@H]1C=CC[C@@H]1[C@H](c1cc3c(cc1Br)OCO3)N2 (relative stereo) [Compound G-1, rel-1-[4-(6-bromo-1,3-benzodioxol-5-yl)-3aR,4S,5,9bS-tetrahydro-3H-cyclopenta[c]quinolin-8-yl]-ethanone]
[1]
  proliferation rates: inhibited
[2]
  proliferation: decreased proliferation
[3]
  pCREB and c-Myc signaling effects: the same signaling effects also occur
[4]
  survival: did not alter survival significantly
  tumor growth: slowed tumor growth initially
